Assay results reported in publication PMC6332220, “Synthesis, Characterization and Biological Evaluation of Some Quinoxaline Derivatives: A Promising and Potent New Class of Antitumor and Antimicrobial Agents” (Molecules, 2015).
≈ marks a conversion by molar mass, not a printed value.

Key:
SF-268 (CNS cancer) = experiment: In vitro cytotoxicity, SRB cell growth assay, SF-268; settings: Homo sapiens, SF-268, 48 h, read-out: IC50 (μg/mL) SF-268
Description: The in vitro cytotoxic activity of the newly synthesized compounds against human breast cell line (MCF7), non-small cell lung cancer NCIH460, CNS cancer SF-268 and WI 38 (normal fibroblast cells) were evaluated using doxorubicin as the reference drug according to the method reported by Skehan et al..
The newly synthesized compounds were evaluated in vitro against three human cancer cell lines; which are MCF-7 (breast adenocarcinoma), NCI-H460 (non-small cell lung cancer) and SF-268 (CNS cancer), and WI 38 (normal fibroblast cells) were used in this study. MCF-7 was obtained from the European Collection of Cell Cultures (ECACC, Salisbury, UK) but NCI-H460, SF-268 and WI 38 were kindly provided by the National Cancer Institute (NCI, Cairo, Egypt). They grow as monolayer and routinely maintained RPMI-1640 medium supplemented with 5% heat inactivated fetal bovine serum (FBS), 2 mM glutamine and antibiotics (penicillin 100 U/mL, streptomycin 100 µg/mL), at 37 °C in a humidified atmosphere containing 5% CO2. Exponentially growing cells were obtained by plating 1.5 × 10^5 cells/mL for MCF-7 and SF-268, and 0.75 × 10^4 cells/mL for NCI-H460 followed by 24 h of incubation. The effect of the vehicle solvent (DMSO) on the growth of these cell lines was evaluated in all experiments by exposing untreated control cells to the maximum concentration (0.5%) of DMSO used in each assay.
The effect of compounds on the in vitro growth of human tumor cell lines were evaluated according to the procedure adopted by the National Cancer Institute ([…]) in the “In vitro Anticancer Drug Discovery Screen” that uses the protein-binding dye sulforhodamine B (SRB) to assess cell growth. In the assay protocol, all cells were incubated at 37 °C under humidified atmosphere containing 5% CO2. Briefly, exponentially cells growing in 96-well plates were then exposed for 48 h to five serial concentrations of each compound, starting from a maximum concentration of 150 μg/mL. Following this exposure period adherent cells were fixed, washed and stained. The bound stain was solubilized and the absorbance was measured at 492 nm in a plate reader (Bio-Tek Instruments Inc., Power wave XS, Winston, NC, USA). For each test compound and cell line, a dose response curve was obtained and the inhibitory concentration of 50% (IC50), corresponding to the concentration of the compounds that inhibited 50% of the net cell growth was calculated as described elsewhere. Doxorubicin was used as a positive control and tested in the same manner.

Streptococcus faecalis = experiment: Disk diffusion, Streptococcus faecalis; format: cell-based; settings: Gram positive, 8.0 mm disks, 10 μL
Description: (§1) The disk diffusion method was used for determination of the antimicrobial activity using ampicillin, gentamicin and amphotericin B as reference drugs. The results were recorded for each compounds as the average diameter as inhibition zones (IZ) of bacterial or fungal growth around the discs in mm as shown in Table 2.
(§2) Antimicrobial activities were carried out against highly pathogenic strains; three strains of Gram positive bacteria (Bacillus subtilis, Staphylococcus aureus and Streptococcus faecalis), four strains of Gram negative bacteria (Escherichia coli, Neisseria gonorrhoeae, Pseudomonas aeruginosa and Salmonella typhimurium) and three fungi strains (Aspergillus flavus, Aspergillus fumigatus and Candida albicans) isolated from primary agar plates. Antimicrobial activity of the tested samples was determined using a modified Kriby-Bauer disk diffusion method. Briefly, 100 µL of the test bacteria/fungi were grown in 10 mL of fresh media until they reached a count approximately 10^8 cells/mL for bacteria or 10^5 cells/mL for fungi. 100 µL of microbial suspension was spread onto agar plates corresponding to the broth in which they were maintained. The inoculated plates of bacterial strains were incubated at 35–37 °C for 24–48 h, while the inoculated plates of fungal strains such as A. flavus and A. fumigatus were incubated at 25 °C for 48 h and yeast as C. albicans was incubated at 30 °C for 24–48 h.
(§3) The agar disk diffusion (qualitative) method was used in this investigation for determination of the preliminary antibacterial and antifungal activities. The agar used was Mueller-Hinton agar plates that are rigorously tested for composition and pH. Further the depth of the agar in the plate is a factor to be considered in the disk diffusion method.
(§4) Reference drugs: ampicillin was used as a standard antibacterial drug for Gram positive bacteria, gentamicin as a standard antibacterial drug for Gram negative bacteria and amphotericin B as antifungal standard drug.
(§5) Bacterial and fungal strains were spread onto the surface of the agar plates using sterile cotton swabs. For evaluation of antibacterial activities, blank paper disks (Schleicher & Schuell, Alicante, Spain) with a diameter of 8.0 mm were saturated with 10 μL of tested concentration of the stock solutions. Disks were dried and then placed onto inoculated agar plates. The plates of bacterial strains were reincubated at 35–37 °C for 24–48 h, while the plates of fungal strains such as A. flavus and A. fumigatus were reincubated at 25 °C for 48 h and yeast as C. albicans was reincubated at 30 °C for 24–48 h as mentioned above. […] For an accurate analysis, tests were run in triplicate for each strain to avoid any error as described in Table 2.

Escherichia coli [1] = experiment: Disk diffusion, Escherichia coli; format: cell-based; settings: Gram negative, 8.0 mm disks, 10 μL
Description: as §1, §2, §3, §4, §5

Neisseria gonorrhoeae = experiment: Disk diffusion, Neisseria gonorrhoeae; format: cell-based; settings: Gram negative, 8.0 mm disks, 10 μL
Description: as §1, §2, §3, §4, §5

Aspergillus flavus = experiment: Disk diffusion, Aspergillus flavus; format: cell-based; settings: Fungi, 8.0 mm disks, 10 μL
Description: as §1, §2, §3, §4, §5
(§6) Disk diffusion method for filamentous fungi testing by using approved standard method (M02-A11) developed by the CLSI for evaluating the susceptibilities of filamentous fungi to antifungal agents. Disk diffusion method for yeasts developed by using approved standard method (M44-A2) by the CLSI [44]. Agar-based methods such as disk diffusion can be good alternatives because they are simpler and faster than broth-based methods.

Candida albicans = experiment: Disk diffusion, Candida albicans; format: cell-based; settings: Fungi, 8.0 mm disks, 10 μL
Description: as §1, §2, §3, §4, §5, §6

Bacillus subtilis = experiment: MIC by broth dilution, Bacillus subtilis; format: cell-based; settings: Bacillus subtilis, Gram positive, 0.98-125 µg/mL, read-out: Minimum Inhibitory Concentration (MIC) (µg/mL) Bacillus subtilis
Description: (§7) In this study, MIC (quantitative method) was used for evaluation of the antimicrobial activity of tested compounds. Screening was evaluated in vitro using the Broth dilution method according to CLSI [45]. All the bacteria were incubated and activated at 30 °C for 24 h inoculation into nutrient broth and the fungi were incubated in malt extract broth for 48 h. The compounds were dissolved in DMSO and then diluted using […] Mueller-Hinton broth. […] In each case triplicate tests were performed and the average was taken as the final reading. The tubes were then inoculated with the test organisms, grown in their suitable broth at 37 °C for 24 h for tested microorganisms (1 × 10^8 CFU/mL for bacteria and 1 × 10^6 CFU/mL of fungi), each 5 mL received 0.1 mL of the above inoculum and incubated at 37 °C for 24 h.

Staphylococcus aureus = experiment: MIC by broth dilution, Staphylococcus aureus; format: cell-based; settings: Staphylococcus aureus, Gram positive, 0.98-125 µg/mL, read-out: Minimum Inhibitory Concentration (MIC) (µg/mL) Staphylococcus aureus
Description: as §7

Escherichia coli [2] = experiment: MIC by broth dilution, Escherichia coli; format: cell-based; settings: Escherichia coli, Gram negative, 0.98-125 µg/mL, read-out: Minimum Inhibitory Concentration (MIC) (µg/mL) Escherichia coli
Description: as §7

SMILES | MIC (Bacillus subtilis) | MIC (Staphylococcus aureus) | MIC (Escherichia coli [2]) | IC50 (SF-268 (CNS cancer)) | Inhibition Zone Diameter (IZ) (mm) Streptococcus faecalis (Streptococcus faecalis) | Inhibition Zone Diameter (IZ) (mm) Escherichia coli (Escherichia coli [1]) | Inhibition Zone Diameter (IZ) (mm) Neisseria gonorrhoeae (Neisseria gonorrhoeae) | Inhibition Zone Diameter (IZ) (mm) Aspergillus flavus (Aspergillus flavus) | Inhibition Zone Diameter (IZ) (mm) Candida albicans (Candida albicans)
NNc1nc2ccc(Br)cc2nc1NN [Compound 9, 6-Bromo-2,3-dihydrazinylquinoxaline] | 0.98 µg/mL (≈ 3.64 µM) | 1.95 µg/mL (≈ 7.25 µM) | 1.95 µg/mL (≈ 7.25 µM) | 38.9 ± 2.63 µg/mL (≈ 145 µM) | 27 mm | 29 mm | 28 mm | R (R (IZ = 0 mm)) | 11 mm
NC1=NN(c2nc3ccc(Br)cc3nc2N2N=C(N)CC2=O)C(=O)C1 [Compound 16, 6-Bromo-2,3-bis(3-amino-1H-pyrazol-5(4H)-one)quinoxaline] | 1.95 µg/mL (≈ 4.84 µM) | 1.95 µg/mL (≈ 4.84 µM) | 3.9 µg/mL (≈ 9.67 µM) | 49.9 ± 8.64 µg/mL (≈ 124 µM) | 11 mm | 10 mm | 11 mm | R (R (IZ = 0 mm)) | R (R (IZ = 0 mm))
Clc1nc2ccc(Br)cc2n2nnnc12 [Compound 4, 8-Bromo-4-chlorotetrazolo[1,5-a]quinoxaline] | 0.98 µg/mL (≈ 3.44 µM) | 3.9 µg/mL (≈ 13.7 µM) | 3.9 µg/mL (≈ 13.7 µM) | 0.06 ± 0.003 µg/mL (≈ 0.211 µM) | 18 mm | 17 mm | 21 mm | 13 mm | 20 mm
Cc1cc(C)n(-c2nc3cc(Br)ccc3nc2NN)n1 [Compound 14, 6-Bromo-3-(3,5-dimethyl-1H-pyrazol-1-yl)-2-hydrazinyl quinoxaline] | 1.95 µg/mL (≈ 5.85 µM) | 1.95 µg/mL (≈ 5.85 µM) | 3.9 µg/mL (≈ 11.7 µM) | 42.1 ± 5.58 µg/mL (≈ 126 µM) | 12 mm | 12 mm | 12 mm | R (R (IZ = 0 mm)) | R (R (IZ = 0 mm))
NNc1nc2cc(Br)ccc2nc1Cl [Compound 3, 6-Bromo-2-chloro-3-hydrazinylquinoxaline] | 1.95 µg/mL (≈ 7.13 µM) | 3.9 µg/mL (≈ 14.3 µM) | 3.9 µg/mL (≈ 14.3 µM) | 30.6 ± 2.39 µg/mL (≈ 112 µM) | 14 mm | 13 mm | 14 mm | R (R (IZ = 0 mm)) | R (R (IZ = 0 mm))
Brc1ccc2c(c1)n1nnnc1c1nnnn21 [Compound 11, 9-Bromoditetrazolo[1,5-a:5′,1′-c]quinoxaline] | 0.98 µg/mL (≈ 3.37 µM) | 7.81 µg/mL (≈ 26.8 µM) | 62.5 µg/mL (≈ 215 µM) | 2.86 ± 4.92 µg/mL (≈ 9.83 µM) | 15 mm | 15 mm | R (R (IZ = 0 mm)) | R (R (IZ = 0 mm)) | R (R (IZ = 0 mm))

Now from value to compound, other results behind:

MIC (Bacillus subtilis) | MIC (Staphylococcus aureus) | MIC (Escherichia coli [2]) | SMILES | IC50 (SF-268 (CNS cancer)) | Inhibition Zone Diameter (IZ) (mm) Streptococcus faecalis (Streptococcus faecalis) | Inhibition Zone Diameter (IZ) (mm) Escherichia coli (Escherichia coli [1]) | Inhibition Zone Diameter (IZ) (mm) Neisseria gonorrhoeae (Neisseria gonorrhoeae) | Inhibition Zone Diameter (IZ) (mm) Aspergillus flavus (Aspergillus flavus) | Inhibition Zone Diameter (IZ) (mm) Candida albicans (Candida albicans)
31.2 µg/mL (≈ 93.8 µM) | 62.5 µg/mL (≈ 188 µM) | 125 µg/mL (≈ 375 µM) | Brc1ccc2nc(N3CCCCC3)c3nnnn3c2c1 [Compound 5a, 8-Bromo-4-(piperidin-1-yl)tetrazolo[1,5-a]quinoxaline] | 0.02 ± 0.008 µg/mL (≈ 0.06 µM) | 9 mm | 13 mm | R (R (IZ = 0 mm)) | R (R (IZ = 0 mm)) | 12 mm
1.95 µg/mL (≈ 5.82 µM) | 1.95 µg/mL (≈ 5.82 µM) | 1.95 µg/mL (≈ 5.82 µM) | Brc1ccc2nc(N3CCOCC3)c3nnnn3c2c1 [Compound 5b, 8-Bromo-4-(morpholin-4-yl)tetrazolo[1,5-a]quinoxaline] | 0.06 ± 0.008 µg/mL (≈ 0.179 µM) | 11 mm | 11 mm | R (R (IZ = 0 mm)) | R (R (IZ = 0 mm)) | 9 mm
